Test results reported in ChEMBL document CHEMBL1201862, “PubChem BioAssay data set” (2004).
Blank lines part the entries; values can stand above or below the compound they belong to. The source made the active and inactive calls.

Columns and labels:
[1] = target: Beta-2 adrenergic receptor (Homo sapiens, UniProt P07550); assay: beta2AR agonists driving receptor internalization, dose response, cell-based, FAP fluorogen, flow cytometry, cherry pick 1 (AID 588763); format: functional
[2] = target: T1, Carboxy-terminal domain RNA polymerase II polypeptide A small phosphatase 1 (Homo sapiens, UniProt Q9GZU7); assay: inhibitors of CTDSP1, concentration-response testing, biochemical assay, absorbance-based, actives from ultra-high-throughput screening (AID 540297); format: functional
T1 sequence (Q9GZU7 whole entry): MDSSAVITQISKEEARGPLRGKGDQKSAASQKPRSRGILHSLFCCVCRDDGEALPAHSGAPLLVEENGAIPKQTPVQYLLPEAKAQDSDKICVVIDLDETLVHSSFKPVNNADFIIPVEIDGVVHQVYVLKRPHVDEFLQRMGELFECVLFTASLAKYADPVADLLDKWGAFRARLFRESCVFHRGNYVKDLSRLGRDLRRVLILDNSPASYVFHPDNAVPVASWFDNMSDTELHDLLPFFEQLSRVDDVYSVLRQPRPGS

Cytochrome P450 1A2 = target: T2, Cytochrome P450 1A2 (Homo sapiens, UniProt P05177);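 also: PubChem cytochrome P450 panel assay, CYP1A2 panel member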
T2 sequence (P05177 whole entry): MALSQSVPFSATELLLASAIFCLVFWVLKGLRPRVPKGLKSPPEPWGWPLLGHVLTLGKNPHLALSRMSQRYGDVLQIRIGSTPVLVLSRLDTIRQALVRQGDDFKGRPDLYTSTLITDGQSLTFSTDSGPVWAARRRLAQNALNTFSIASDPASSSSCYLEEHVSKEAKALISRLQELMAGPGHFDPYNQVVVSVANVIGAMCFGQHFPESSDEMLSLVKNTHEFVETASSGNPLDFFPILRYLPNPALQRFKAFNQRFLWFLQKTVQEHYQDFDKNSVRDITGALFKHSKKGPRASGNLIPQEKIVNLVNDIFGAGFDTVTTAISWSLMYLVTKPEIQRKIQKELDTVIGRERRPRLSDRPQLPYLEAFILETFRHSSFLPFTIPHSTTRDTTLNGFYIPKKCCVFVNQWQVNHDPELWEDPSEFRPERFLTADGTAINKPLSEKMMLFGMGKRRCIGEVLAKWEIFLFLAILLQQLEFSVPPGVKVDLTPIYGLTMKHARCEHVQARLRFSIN

Genome polyprotein = Genome polyprotein (dengue virus type 2, UniProt P29990); assay: Dengue-2 NS5 methyltransferase inhibitors, primary screen, biochemical, confirmation dose response (AID 588689); format: functional
Vero = Vero cell cytotoxicity, cytotoxicity control for flavivirus capping enzyme inhibitors (AID 588742); format: functional; settings: Chlorocebus sabaeus
[3] = system: Streptococcus sp. 'group A'; assay: growth inhibition of control SK(-) GAS strain, dose response, counter-screen for streptokinase expression inhibitor project, luminescence, kanamycin, BacTiterGlo, confirmation (AID 1900); format: functional, organism-based
Streptococcus = assay: Group A Streptococcus viability loss, dose response, counter-screen for streptokinase expression inhibitor project, luminescence, BacTiterGlo (AID 1915); format: functional, organism-based;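 also: potency for reduction of bacterial viability or growth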
[4] = target: T3, High affinity choline transporter 1 (Homo sapiens, UniProt Q9GZV3); assay: CHT inhibitors, dose response, cell-based, 5-point CRC, membrane potential dye (AID 504840); format: functional
T3 sequence (Q9GZV3 whole entry): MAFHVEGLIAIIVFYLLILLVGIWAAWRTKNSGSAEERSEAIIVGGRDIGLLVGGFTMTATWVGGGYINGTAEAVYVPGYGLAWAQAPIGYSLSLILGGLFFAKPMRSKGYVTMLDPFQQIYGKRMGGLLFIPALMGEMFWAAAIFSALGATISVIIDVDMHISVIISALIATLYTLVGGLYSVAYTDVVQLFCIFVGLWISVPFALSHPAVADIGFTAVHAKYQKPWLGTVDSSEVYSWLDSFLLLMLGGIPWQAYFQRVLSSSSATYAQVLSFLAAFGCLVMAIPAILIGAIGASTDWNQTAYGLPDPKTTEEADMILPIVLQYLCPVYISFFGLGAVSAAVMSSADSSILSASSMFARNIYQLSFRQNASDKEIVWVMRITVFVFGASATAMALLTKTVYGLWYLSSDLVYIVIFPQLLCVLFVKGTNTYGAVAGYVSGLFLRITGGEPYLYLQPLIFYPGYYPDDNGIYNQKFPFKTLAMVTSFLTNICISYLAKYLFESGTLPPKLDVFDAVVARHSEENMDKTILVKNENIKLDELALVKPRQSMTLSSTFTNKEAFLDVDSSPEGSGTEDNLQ

[5] = target: T4, Corticotropin-releasing factor receptor 2/Corticotropin-releasing factor-binding protein (Homo sapiens, UniProt P24387+Q13324); assay: activators of CRF receptor 2 with binding protein – uHTS hits, confirmation (AID 602473); format: functional; settings: read-out: EC50_Mean
T4 sequence (Q13324 whole entry): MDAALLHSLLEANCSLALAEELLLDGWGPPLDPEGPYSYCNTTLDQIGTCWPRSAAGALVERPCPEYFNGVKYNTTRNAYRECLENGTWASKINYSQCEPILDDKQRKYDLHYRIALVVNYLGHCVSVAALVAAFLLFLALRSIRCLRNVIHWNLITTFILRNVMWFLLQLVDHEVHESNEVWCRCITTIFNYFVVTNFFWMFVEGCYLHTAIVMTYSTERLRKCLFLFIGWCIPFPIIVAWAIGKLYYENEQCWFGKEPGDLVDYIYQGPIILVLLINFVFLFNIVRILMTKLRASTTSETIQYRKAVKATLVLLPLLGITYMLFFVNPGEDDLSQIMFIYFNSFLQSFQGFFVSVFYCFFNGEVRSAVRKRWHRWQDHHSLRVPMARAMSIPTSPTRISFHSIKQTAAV
T4 sequence (P24387 whole entry): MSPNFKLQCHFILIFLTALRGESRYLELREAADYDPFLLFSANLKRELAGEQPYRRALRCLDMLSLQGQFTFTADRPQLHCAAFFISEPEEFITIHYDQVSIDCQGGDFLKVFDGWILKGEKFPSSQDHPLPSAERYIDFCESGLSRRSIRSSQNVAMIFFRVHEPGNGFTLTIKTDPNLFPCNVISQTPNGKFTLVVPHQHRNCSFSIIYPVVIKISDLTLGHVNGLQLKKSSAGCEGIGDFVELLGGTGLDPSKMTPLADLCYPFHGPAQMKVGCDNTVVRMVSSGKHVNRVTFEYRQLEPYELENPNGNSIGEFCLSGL

Caspase-3 = target: T5, Caspase-3 (Homo sapiens, UniProt P42574); assay: SAR Analysis of small molecule inhibitors of Sentrin-specific proteases (SENPs) using a Caspase-3 Selectivity assay. [Related pubchem assays (depositor defined):AID2540, AID2599, AID434973, AID489001]; format: functional
T5 sequence (P42574 whole entry): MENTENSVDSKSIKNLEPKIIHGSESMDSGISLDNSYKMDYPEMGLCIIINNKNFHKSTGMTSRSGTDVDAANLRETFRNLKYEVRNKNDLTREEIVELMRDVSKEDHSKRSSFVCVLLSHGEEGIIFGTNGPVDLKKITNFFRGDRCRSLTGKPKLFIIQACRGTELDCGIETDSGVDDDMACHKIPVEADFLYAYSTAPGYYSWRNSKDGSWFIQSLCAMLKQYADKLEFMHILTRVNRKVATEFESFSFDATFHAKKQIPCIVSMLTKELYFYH

[6] = target: T6, Sentrin-specific protease 7 (Homo sapiens, UniProt Q9BQF6); assay: SENP7 protease inhibitors, SAR follow-up, biochemical, luminescence (AID 504497); format: functional
T6 sequence (Q9BQF6 whole entry): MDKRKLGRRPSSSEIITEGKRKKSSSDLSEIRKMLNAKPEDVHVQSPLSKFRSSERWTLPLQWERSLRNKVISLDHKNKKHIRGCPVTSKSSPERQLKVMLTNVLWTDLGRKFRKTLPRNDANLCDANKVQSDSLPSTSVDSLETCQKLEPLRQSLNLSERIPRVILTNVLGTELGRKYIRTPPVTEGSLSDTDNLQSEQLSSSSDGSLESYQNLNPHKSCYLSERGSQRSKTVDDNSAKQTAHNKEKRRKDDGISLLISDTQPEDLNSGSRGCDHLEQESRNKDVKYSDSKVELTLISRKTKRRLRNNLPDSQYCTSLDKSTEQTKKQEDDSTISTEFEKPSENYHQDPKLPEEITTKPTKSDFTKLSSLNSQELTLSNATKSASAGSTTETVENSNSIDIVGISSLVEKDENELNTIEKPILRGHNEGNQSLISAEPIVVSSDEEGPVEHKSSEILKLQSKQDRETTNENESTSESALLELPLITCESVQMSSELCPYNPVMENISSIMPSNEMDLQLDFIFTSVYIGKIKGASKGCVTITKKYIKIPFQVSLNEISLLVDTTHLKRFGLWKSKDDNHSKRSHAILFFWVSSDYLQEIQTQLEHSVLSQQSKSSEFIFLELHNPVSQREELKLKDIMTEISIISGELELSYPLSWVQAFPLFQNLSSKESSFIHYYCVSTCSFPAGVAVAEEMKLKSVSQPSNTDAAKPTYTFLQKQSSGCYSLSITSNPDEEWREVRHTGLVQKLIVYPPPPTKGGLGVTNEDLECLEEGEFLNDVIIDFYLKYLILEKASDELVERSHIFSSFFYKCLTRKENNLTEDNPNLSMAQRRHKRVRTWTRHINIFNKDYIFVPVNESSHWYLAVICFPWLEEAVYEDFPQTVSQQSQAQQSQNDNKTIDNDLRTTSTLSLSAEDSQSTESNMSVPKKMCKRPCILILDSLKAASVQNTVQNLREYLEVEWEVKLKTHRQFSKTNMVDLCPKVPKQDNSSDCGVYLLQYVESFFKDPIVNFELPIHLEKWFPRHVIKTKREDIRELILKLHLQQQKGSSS

[7] = target: T7, Sentrin-specific protease 8 (Homo sapiens, UniProt Q96LD8); assay: SENP8 protease inhibitors, SAR follow-up, biochemical, luminescence (AID 504501); format: functional
T7 sequence (Q96LD8 whole entry): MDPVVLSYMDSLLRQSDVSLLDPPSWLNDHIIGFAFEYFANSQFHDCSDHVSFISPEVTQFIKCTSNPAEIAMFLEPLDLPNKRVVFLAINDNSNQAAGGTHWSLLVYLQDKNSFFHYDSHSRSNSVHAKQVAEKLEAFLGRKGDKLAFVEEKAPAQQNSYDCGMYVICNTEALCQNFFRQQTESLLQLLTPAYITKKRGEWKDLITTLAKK

[8] = target: T8, Sentrin-specific protease 6 (Homo sapiens, UniProt Q9GZR1); assay: SAR Analysis of small molecule inhibitors of Sentrin-specific protease 6 (SENP6) using a Luminescent assay. [Related pubchem assays (depositor defined):AID2582, AID2599]; format: functional
T8 sequence (Q9GZR1 whole entry): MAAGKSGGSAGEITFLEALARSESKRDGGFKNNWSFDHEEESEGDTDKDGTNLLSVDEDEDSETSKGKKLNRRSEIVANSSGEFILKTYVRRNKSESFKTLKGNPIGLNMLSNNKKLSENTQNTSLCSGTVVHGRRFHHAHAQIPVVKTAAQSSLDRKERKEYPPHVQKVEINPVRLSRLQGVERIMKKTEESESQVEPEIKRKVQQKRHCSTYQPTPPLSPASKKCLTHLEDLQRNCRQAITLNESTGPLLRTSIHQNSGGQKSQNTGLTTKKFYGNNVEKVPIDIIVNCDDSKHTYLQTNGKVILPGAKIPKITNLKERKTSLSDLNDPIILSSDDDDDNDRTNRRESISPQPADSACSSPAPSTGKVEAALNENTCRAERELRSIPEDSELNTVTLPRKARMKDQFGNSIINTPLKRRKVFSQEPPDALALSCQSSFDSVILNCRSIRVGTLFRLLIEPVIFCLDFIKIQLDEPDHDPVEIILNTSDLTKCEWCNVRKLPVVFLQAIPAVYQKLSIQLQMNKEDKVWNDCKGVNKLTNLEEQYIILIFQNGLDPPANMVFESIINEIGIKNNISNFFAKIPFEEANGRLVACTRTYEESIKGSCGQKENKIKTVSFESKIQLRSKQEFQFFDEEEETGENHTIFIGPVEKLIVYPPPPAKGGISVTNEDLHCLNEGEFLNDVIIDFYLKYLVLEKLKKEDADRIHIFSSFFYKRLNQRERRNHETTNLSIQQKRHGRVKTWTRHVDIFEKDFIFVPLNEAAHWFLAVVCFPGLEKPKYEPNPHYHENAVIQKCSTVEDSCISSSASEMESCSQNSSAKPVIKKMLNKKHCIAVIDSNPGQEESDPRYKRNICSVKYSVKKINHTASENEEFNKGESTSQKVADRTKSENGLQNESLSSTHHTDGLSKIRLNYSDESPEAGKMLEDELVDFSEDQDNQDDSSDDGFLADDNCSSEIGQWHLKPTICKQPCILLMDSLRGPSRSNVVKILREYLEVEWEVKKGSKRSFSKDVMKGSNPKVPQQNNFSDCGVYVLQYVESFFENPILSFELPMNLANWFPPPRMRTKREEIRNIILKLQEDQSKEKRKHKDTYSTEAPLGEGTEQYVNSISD

Chain of Beta-2 adrenergic receptor (P07550 whole entry, the tested form may be a part): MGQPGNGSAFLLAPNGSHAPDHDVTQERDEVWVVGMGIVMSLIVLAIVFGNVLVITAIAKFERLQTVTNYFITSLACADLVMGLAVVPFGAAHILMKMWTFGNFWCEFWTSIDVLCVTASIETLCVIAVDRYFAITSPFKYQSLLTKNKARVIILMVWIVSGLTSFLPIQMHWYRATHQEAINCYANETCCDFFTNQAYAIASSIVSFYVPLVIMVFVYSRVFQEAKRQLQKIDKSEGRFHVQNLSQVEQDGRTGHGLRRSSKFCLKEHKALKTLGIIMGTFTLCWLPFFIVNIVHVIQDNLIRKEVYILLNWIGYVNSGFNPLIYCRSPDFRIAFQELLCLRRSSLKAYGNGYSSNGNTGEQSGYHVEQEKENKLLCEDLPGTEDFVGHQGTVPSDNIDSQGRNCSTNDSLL
Chain of Genome polyprotein (P29990 2492-3391 limits assumed): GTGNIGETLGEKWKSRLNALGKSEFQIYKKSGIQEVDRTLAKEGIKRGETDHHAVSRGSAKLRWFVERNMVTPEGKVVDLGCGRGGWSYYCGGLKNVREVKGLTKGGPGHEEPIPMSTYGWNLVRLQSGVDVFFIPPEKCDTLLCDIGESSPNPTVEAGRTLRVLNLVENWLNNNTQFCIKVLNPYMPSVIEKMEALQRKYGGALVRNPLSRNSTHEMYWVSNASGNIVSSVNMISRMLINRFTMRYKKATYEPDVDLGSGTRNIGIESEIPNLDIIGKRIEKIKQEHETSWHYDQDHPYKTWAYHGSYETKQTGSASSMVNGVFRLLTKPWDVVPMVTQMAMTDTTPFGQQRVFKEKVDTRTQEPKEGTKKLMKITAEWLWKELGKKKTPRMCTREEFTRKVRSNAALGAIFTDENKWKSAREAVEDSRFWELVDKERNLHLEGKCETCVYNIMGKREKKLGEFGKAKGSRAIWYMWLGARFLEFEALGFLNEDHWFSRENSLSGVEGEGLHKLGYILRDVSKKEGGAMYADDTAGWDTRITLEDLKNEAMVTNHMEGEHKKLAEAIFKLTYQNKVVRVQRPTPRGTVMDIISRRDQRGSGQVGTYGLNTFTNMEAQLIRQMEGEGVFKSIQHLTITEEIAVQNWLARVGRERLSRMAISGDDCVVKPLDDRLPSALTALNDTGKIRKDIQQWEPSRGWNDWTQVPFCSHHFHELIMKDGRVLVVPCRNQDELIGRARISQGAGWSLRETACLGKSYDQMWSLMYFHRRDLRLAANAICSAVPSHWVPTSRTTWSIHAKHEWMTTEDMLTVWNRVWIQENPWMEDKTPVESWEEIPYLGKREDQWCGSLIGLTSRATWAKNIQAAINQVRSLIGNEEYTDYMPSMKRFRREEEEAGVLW

- EC50 [1]: 2.59 µM (active)
SMILES: O=C(c1ccc(OC2CCN(Cc3ccc(C(F)(F)F)cc3)CC2)cc1)N1CCCCC1

- IC50 [4]: 13.2 µM (active)
- IC50 (Genome polyprotein): 67.9 µM (active)
- EC50 [5]: 1.83 µM (active)
SMILES: O=C(Nc1cc(S(=O)(=O)N2CCCCC2)ccc1O)c1ccccc1NS(=O)(=O)c1ccc(F)cc1
- CC50 (Vero): > 40 µM (active)

The next lines start with the compound.

SMILES: O=C(Nc1cccc(-c2nc3ncccc3o2)c1)c1sc2cc(Cl)ccc2c1Cl
- EC50 [1]: 7.22 µM (inactive)
- IC50 [2]: 7.21 µM (active)
- AC50 (Cytochrome P450 1A2): 25.1 µM (inconclusive)

SMILES: O=C(O)CN1C(=O)/C(=C\c2cc(Br)ccc2OCc2ccc(Cl)cc2Cl)SC1=S
- IC50 (Genome polyprotein): 28.8 µM (active)
- CC50 (Vero): > 40 µM (active)
- EC50 [3]: 1.36 µM (active)
- EC50 (Streptococcus): 1.95 µM (active)

SMILES: CC(C)=CCC(C)(C)C1OCCN1C(=O)c1ccccc1 (stereo unspecified)
- EC50 [1]: 3.3 µM (active)

SMILES: C(=N/Nc1cc(N2CCCCCC2)nc(N2CCCCCC2)n1)/c1ccccc1
- IC50 (Caspase-3): > 99 µM (inactive)
- IC50 [6]: > 99 µM (inactive)
- IC50 [7]: > 99 µM (inactive)
- IC50 [8]: 64.6 µM (active)

SMILES: CN(C)S(=O)(=O)c1ccc2nc(NC(=O)c3sc4ccccc4c3Cl)sc2c1
- IC50 (Caspase-3): > 99 µM (inactive)
- IC50 [6]: > 99 µM (inactive)
- IC50 [7]: > 99 µM (inactive)
- IC50 [8]: > 99 µM (inactive)
